Tested on: 945468-187-T-J3-PDC spheroids with HUVEC/MSC, viability
Experiment: Anticancer human tumor 945468-187-T-J3-PDC patient-derived rectal carcinoma cell line growth inhibition [PI3K]
Conditions: for IC50: curve of first compound; for viability, T/C: stronger effect = lower value
Source text: Combinatorial screen of targeted agents with the PI3K inhibitors inavolisib, alpelisib, duvelisib, and copanlisib in multi-cell type tumor spheroids
A high-throughput screen of multi-cell type tumor spheroids was designed to identify active combinations of targeted small molecules and PI3K pathway inhibitors. Complex spheroids include a stromal component modeled by human endothelial cells (HUVEC) and fibroblasts modeled by human mesenchymal stem cells (MSCs). The concentration ranges selected for each drug and investigational agent were based upon clinically achievable concentrations if the clinical Cmax of the agent was known.
Compounds. The drugs and investigational agents: inavolisib (NSC800729), alpelisib (NSC765974), duvelisib (NSC772469), copanlisib (NSC816437), ipatasertib (NSC767898), afuresertib (NSC778305), talazoparib (NSC767125), sapanisertib (NSC764658), selumetinib (NSC741078), tovorafenib (DAY101, NSC766906), vemurafenib (NSC761431), ravoxertinib (NSC781343), sotorasib (NSC818433), MRTX1133 (NSC 836407), abemaciclib (NSC 768073), palbociclib (NSC758247), venetoclax (NSC 766270), SY5609 (NSC837396), enzalutamide (NSC755605), and darolutamide (NSC825331), were obtained from the National Cancer Institute (NCI) Developmental Therapeutics Program Chemical Repository. The FDA-approved anticancer drug set is available from the NCI Developmental Therapeutics Program. […] The stock solutions were prepared in dimethyl sulfoxide (DMSO, Sigma-Aldrich, St. Louis, MO, cat. D2650) at 800-fold the tested concentration and stored at -70 degrees C prior to their use. All drugs and investigational agents were tested over a range starting from a high concentration at or near the clinical Cmax and decreasing in half-log increments. If the clinical Cmax for an agent had not been determined, the highest concentration tested was 10 microM.
Cell Culture. All cells were maintained in an incubator at 37 degrees C and 5% CO2 with 95% humidity. The PDC lines were cultured according to standard operating procedures established by the NCI PDMR (https://pdmr.cancer.gov/sops/default.htm). All PDCs were thawed and cultured in Matrigel-coated flasks prepared with a working solution of 1X Ham's F-12 nutrient mix, without supplementation (Invitrogen, Waltham, MA, cat. 11765054), 100 U/mL penicillin-streptomycin (Invitrogen, cat. 15140122), and 2.5% Matrigel (Corning Inc., Corning, NY, cat. 354248) for the first three passages. The 354836-022-R-J1-PDC, 475296-252-R-J1-PDC, and 997726-040-R-J2-PDC lines were cultured in 6A media, which includes advanced DMEM/F-12 (Thermo Fisher Scientific, cat. 12634028), 10 mM HEPES (Thermo Fisher Scientific, cat. 15630080), 1X GlutaMAX supplement (Thermo Fisher Scientific, cat. 35050061), 0.1 mg/mL primocin (InvivoGen, San Diego, CA, cat. ant-pm-2), 10% defined fetal bovine serum, heat inactivated (HyClone Laboratories Inc., Logan, UT, cat. SH30070.03HI), 50% L-WRN conditioned media (ATCC, cat. CRL-3276), 1.25 mM N-Acetyl-L-cysteine (Sigma-Aldrich, cat. A9165), 10 mM nicotinamide (Sigma-Aldrich, cat. N0636), 1X B-27 supplement (Thermo Fisher Scientific, cat. 17504044), 1X N-2 supplement (Thermo Fisher Scientific, cat. 17502048), and 10 microM Y-27632 dihydrochloride (Tocris Bioscience, Bristol, United Kingdom, cat. 1254). The 624824-186-R-J2-PDC line was cultured in 6C/Colon 1B media, which includes all 6A media components plus 50 ng/mL human EGF recombinant protein (Thermo Fisher Scientific, cat. PHG0311). […]

[1] = second compound 0.00316 µM, first compound 0.0316 µM
[2] = second compound 0.00316 µM, first compound 0.1 µM
[3] = second compound 0.00316 µM, first compound 0.316 µM
[4] = second compound 0.00316 µM, first compound 1 µM
[5] = second compound 0.00316 µM, first compound 3.16 µM
[6] = second compound 0.00316 µM, first compound 10 µM
[7] = second compound 0.01 µM, first compound 0.0316 µM
[8] = second compound 0.01 µM, first compound 0.1 µM
[9] = second compound 0.01 µM, first compound 0.316 µM
[10] = second compound 0.01 µM, first compound 1 µM
[11] = second compound 0.01 µM, first compound 3.16 µM
[12] = second compound 0.01 µM, first compound 10 µM
[13] = second compound 0.0316 µM, first compound 0.0316 µM
[14] = second compound 0.0316 µM, first compound 0.1 µM
[15] = second compound 0.0316 µM, first compound 0.316 µM
[16] = second compound 0.0316 µM, first compound 1 µM
[17] = second compound 0.0316 µM, first compound 3.16 µM
[18] = second compound 0.0316 µM, first compound 10 µM
[19] = second compound 0.1 µM, first compound 0.0316 µM
[20] = second compound 0.1 µM, first compound 0.1 µM
[21] = second compound 0.1 µM, first compound 0.316 µM
[22] = second compound 0.1 µM, first compound 1 µM
[23] = second compound 0.1 µM, first compound 3.16 µM
[24] = second compound 0.1 µM, first compound 10 µM
[25] = second compound 0.316 µM, first compound 0.0316 µM
[26] = second compound 0.316 µM, first compound 0.1 µM
[27] = second compound 0.316 µM, first compound 0.316 µM
[28] = second compound 0.316 µM, first compound 1 µM
[29] = second compound 0.316 µM, first compound 3.16 µM
[30] = second compound 0.316 µM, first compound 10 µM
[31] = second compound 1 µM, first compound 0.0316 µM
[32] = second compound 1 µM, first compound 0.1 µM
[33] = second compound 1 µM, first compound 0.316 µM
[34] = second compound 1 µM, first compound 1 µM
[35] = second compound 1 µM, first compound 3.16 µM
[36] = second compound 1 µM, first compound 10 µM
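Note: spheroids exposed to agents for 7 days before viability read.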
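Throughout, for viability, T/C: 100% = DMSO vehicle control viability.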

CC(C)NCC(C(=O)N1CCN(c2ncnc3c2C(C)CC3O)CC1)c1ccc(Cl)cc1 (stereo unspecified) + CC(Nc1ccc2c(c1)OCCn1cc(N3C(=O)OCC3C(F)F)nc1-2)C(N)=O was tested, and the IC50 (second compound 0.00316 µM) was 8.44 µM, the IC50 (second compound 0.01 µM) was > 10 µM and the IC50 (second compound 0.0316 µM) was 6.85 µM. The IC50 (second compound 0.1 µM) was 2.81 µM, the IC50 (second compound 0.316 µM) was 0.91 µM and the IC50 (second compound 1 µM) was 1.38 µM. It also gave a viability, T/C [1] of 93.8%, a viability, T/C [2] of 93.9% and a viability, T/C [3] of 103%. The viability, T/C [4] was 91.6%, the viability, T/C [5] was 58.6% and the viability, T/C [6] was 48.5%. For the same compound, the viability, T/C [7] was 111%, the viability, T/C [8] was 103% and the viability, T/C [9] was 104%. It also gave a viability, T/C [10] of 96.7%, a viability, T/C [11] of 54.9% and a viability, T/C [12] of 59.2%. For the same compound, the viability, T/C [13] was 93.7%, the viability, T/C [14] was 91.8% and the viability, T/C [15] was 94.1%. The viability, T/C [16] was 90.9%, the viability, T/C [17] was 55.6% and the viability, T/C [18] was 47.3%. For the same compound, the viability, T/C [19] was 101%, the viability, T/C [20] was 93.4% and the viability, T/C [21] was 87%. The viability, T/C [22] was 76.4%, the viability, T/C [23] was 45% and the viability, T/C [24] was 31.5%. It also gave a viability, T/C [25] of 101%, a viability, T/C [26] of 89.3% and a viability, T/C [27] of 62.7%. The viability, T/C [28] was 49.6%, the viability, T/C [29] was 39% and the viability, T/C [30] was 29.3%. The viability, T/C [31] was 62.8%, the viability, T/C [32] was 70.4% and the viability, T/C [33] was 57.8%. For the same compound, the viability, T/C [34] was 57.3%, the viability, T/C [35] was 34.1% and the viability, T/C [36] was 26.7%.

CC1(C)CCC(CN2CCN(c3ccc(C(=O)NS(=O)(=O)c4ccc(NCC5CCOCC5)c([N+](=O)[O-])c4)c(Oc4cnc5[nH]ccc5c4)c3)CC2)=C(c2ccc(Cl)cc2)C1 + CC(Nc1ccc2c(c1)OCCn1cc(N3C(=O)OCC3C(F)F)nc1-2)C(N)=O was tested, and the IC50 (second compound 0.00316 µM) was > 10 µM, the IC50 (second compound 0.01 µM) was > 10 µM and the IC50 (second compound 0.0316 µM) was > 10 µM. The IC50 (second compound 0.1 µM) was > 10 µM, the IC50 (second compound 0.316 µM) was > 10 µM and the IC50 (second compound 1 µM) was > 10 µM. It also gave a viability, T/C [1] of 96.8%, a viability, T/C [2] of 112% and a viability, T/C [3] of 102%. For the same compound, the viability, T/C [4] was 114%, the viability, T/C [5] was 131% and the viability, T/C [6] was 52.9%. It also gave a viability, T/C [7] of 97.7%, a viability, T/C [8] of 125% and a viability, T/C [9] of 94%. The viability, T/C [10] was 114%, the viability, T/C [11] was 132% and the viability, T/C [12] was 63.2%. It also gave a viability, T/C [13] of 121%, a viability, T/C [14] of 101% and a viability, T/C [15] of 112%. It also gave a viability, T/C [16] of 121%, a viability, T/C [17] of 125% and a viability, T/C [18] of 63.2%. For the same compound, the viability, T/C [19] was 121%, the viability, T/C [20] was 114% and the viability, T/C [21] was 105%. It also gave a viability, T/C [22] of 126%, a viability, T/C [23] of 125% and a viability, T/C [24] of 65.5%. For the same compound, the viability, T/C [25] was 107%, the viability, T/C [26] was 103% and the viability, T/C [27] was 102%. It also gave a viability, T/C [28] of 113%, a viability, T/C [29] of 120% and a viability, T/C [30] of 73.2%. For the same compound, the viability, T/C [31] was 79.2%, the viability, T/C [32] was 68% and the viability, T/C [33] was 80%. The viability, T/C [34] was 79.2%, the viability, T/C [35] was 81.1% and the viability, T/C [36] was 53.9%.

For C[C@@H](NC(=O)c1ncnc(N)c1Cl)c1ncc(C(=O)Nc2cc(C(F)(F)F)c(Cl)cn2)s1 + CC(Nc1ccc2c(c1)OCCn1cc(N3C(=O)OCC3C(F)F)nc1-2)C(N)=O, the IC50 (second compound 0.00316 µM) was > 10 µM, the IC50 (second compound 0.01 µM) was > 10 µM and the IC50 (second compound 0.0316 µM) was > 10 µM. For the same compound, the IC50 (second compound 0.1 µM) was > 10 µM, the IC50 (second compound 0.316 µM) was > 10 µM and the IC50 (second compound 1 µM) was > 10 µM. The viability, T/C [1] was 97.2%, the viability, T/C [2] was 97.5% and the viability, T/C [3] was 116%. It also gave a viability, T/C [4] of 91.5%, a viability, T/C [5] of 111% and a viability, T/C [6] of 92%. The viability, T/C [7] was 94.7%, the viability, T/C [8] was 110% and the viability, T/C [9] was 101%. It also gave a viability, T/C [10] of 88.4%, a viability, T/C [11] of 90.8% and a viability, T/C [12] of 98.4%. The viability, T/C [13] was 94.4%, the viability, T/C [14] was 89.3% and the viability, T/C [15] was 94.4%. It also gave a viability, T/C [16] of 95.1%, a viability, T/C [17] of 103% and a viability, T/C [18] of 94.3%. The viability, T/C [19] was 91.2%, the viability, T/C [20] was 102% and the viability, T/C [21] was 101%. For the same compound, the viability, T/C [22] was 100%, the viability, T/C [23] was 96.7% and the viability, T/C [24] was 95.8%. For the same compound, the viability, T/C [25] was 109%, the viability, T/C [26] was 112% and the viability, T/C [27] was 92.7%. For the same compound, the viability, T/C [28] was 92.7%, the viability, T/C [29] was 88.8% and the viability, T/C [30] was 96.3%. It also gave a viability, T/C [31] of 67.5%, a viability, T/C [32] of 56.1% and a viability, T/C [33] of 63.7%. The viability, T/C [34] was 56.8%, the viability, T/C [35] was 65.1% and the viability, T/C [36] was 62.4%.

— PubChem BioAssay AID1963968 (Molecular Pharmacology Branch, DTP, NCI, 2024)
